Experimental data as given in US8241607B2, “Use of fructose-based compounds for the diagnosis of cancer” (priority 2005, dated 2012).

Key:
PANC-1 cells = assay: PANC-1 proliferation in fructose versus glucose (MTS assay); assay type: cell-based
Description: FIG. 13 depicts higher proliferation rates in pancreatic cancer cells in fructose (5.5 mM) than glucose (5.5 mM) containing medium in accordance with an embodiment of the present invention. PANC-1 cells were pre-incubated in 2 mM glucose, after which they were plated in 5.5 mM fructose or glucose for times between 12-72 h, after which proliferative rates were measured using an MTS assay. Proliferative rates are expressed as the percentage difference between cells grown in 5.5 mM fructose versus 5.5 mM glucose. p<0.01 for times >48 h.
FIG. 14 depicts proliferation rates of pancreatic cells in different fructose or glucose concentrations in accordance with an embodiment of the present invention. PANC-1 cells were plated in a range of fructose or glucose concentrations (5-25 mM) for 72 h, after which proliferative rates were measured using an MTS assay. *, p<0.05 for concentrations between 5-25 mM fructose versus glucose.
FIG. 17 depicts cell proliferation regardless of co-existent glucose concentration in accordance with an embodiment of the present invention. PANC-1 cells were pre-incubated in 2 mM glucose prior to treatment with a range of concentrations (0-15 mM) mixed with a range of fructose concentrations (0-15 mM) for 72 h. PANC-1 cell proliferative rates were then measured using the MTS assay (absorbance in arbitrary units).
Standard media for maintenance cancer cell line culture, including pancreatic cancer cells such as PANC-1 cells contain either low- (5-7 mM), or high- (12-25 mM) glucose concentrations. […] Proliferative rates were then measured in replicate (minimum of 6) aliquot wells of the pancreatic cancer cells, and the change (expressed as percent increase) in proliferative rates compared between cells grown in glucose, or fructose containing medium.
This first result intrigued the inventors, but given there is little documentation regarding physiological fructose concentrations, the inventors first considered that the “apparent” pro-proliferative effects of fructose were simply a consequence of the highly stylized in vitro experimental conditions, and that if the pancreatic cancer cells were cultured in higher glucose concentrations, this would result in similar proliferative rates to those the inventors observed following culture in 5.5 mM fructose. […] MTS assay was employed to measure pancreatic cancer cell proliferative rates, which utilizes mitochondrial oxidation to quantify cell proliferation. As the inventors were examining carbohydrate-mediated effects, the inventors considered the change observed in proliferative rates, as measured by this assay, simply reflected changes in mitochondrial oxidation. […]

transketolase (TKK) = assay: Transketolase activity in PANC-1 lysates (NADH oxidation); assay type: cell-based; settings: 5.5 mM fructose, 72 h
Description: FIG. 34 depicts quantitation of transketolase activity in pancreatic cancer PANC-1 cells following incubation in 2 mM glucose, 5.5 mM glucose, and 5.5 mM fructose for 24 h, 48 h, and 72 h respectively, in accordance with an embodiment of the present invention.
The inventors believe that fructose-treatment of pancreatic cancer cells led to an increase in TKK-driven nucleic acid synthesis, and thus fructose-treatment would result in an increase in either PANC-1 TKK expression and/or activity in comparison to equivalent glucose concentrations. Western blot analysis on protein lysates derived from fructose-, and glucose-treated PANC-1 cells were performed (5.5 mM fructose, and glucose for 24, and 48 h as per previous protocol) using a specific TKK antibody, and compared TKK expression in the fructose-, and glucose-treated PANC-1 cells. As depicted in FIG. 33, TKK expression at 24 h, and 48 h in protein lysates derived from 5.5 mM glucose-treated PANC-1 cells was increased in comparison to expression in 2 mM glucose-treated cells. […] After gentle mixing the absorbance of the mixture was measured at 10 min intervals for 2 h at 340 nm. Transketolase activity was then derived from the difference in absorbance at 10, and 80 minutes, and expressed as nmol/min/million cells. […] Pancreatic cancer proliferation rates were then measured using the MTS assay (FIG. 35).

## O=C(CO)[C@@H](O)[C@H](O)[C@H](O)CO [fructose]
PANC-1 cells; 5 mM fructose vs 5-fold higher glucose (25 mM), 72 h
  proliferative rates: higher proliferative rates
PANC-1 cells; 5.5 mM fructose vs 5.5 mM glucose, 72 h (maximal)
  higher proliferative rate, fructose vs glucose: 23%
PANC-1 cells; 72 h, glucose 0-15 mM admixed with fructose 0-15 mM
  fructose concentration giving increase in cell proliferation regardless of co-existent glucose: ≥ 6 mM
PANC-1 cells; 72 h, range 2-25 mM
  fructose concentration at which increased proliferation was first demonstrable: around 5 mM
Transketolase (TKK)
  TKK activity in comparison to 5.5 mM glucose-treated cells: 1.7 fold higher
